{"source": "patent US20210023065A1", "about": "“AMPHIPHILIC THIOL COMPOUNDS AND USES THEREOF” (THE REGENTS OF THE UNIVERSITY OF CALIFORNIA, priority 2018, published 2021)", "key": {"[1]": {"test_system": "Gα(i)", "assay": "Acyl resin-assisted capture detection of Gα(i) palmitoylation in HeLa cells", "assay_type": "cell-based", "settings": "1.25 μmol/10^7 cells, relative to vehicle", "procedure": "(§1) HeLa cells were grown to confluency in 10 cm plates. Stock solutions of compounds were prepared in DMSO as before and diluted to the final indicated concentration in 5.5 mL of OptiMEM media before adding to cells. Cells were incubated at 37° C. for 20 min and then media removed and 3 mL of HBSS added to each plate. Cells were detached using a cell scraper, pelleted by centrifugation at 1,000 rcf for 5 min and the pellet processed using a CAPTUREome S-Palmitoylated Protein Kit (Badrilla, UK) according to the manufacturer's protocol. Samples were resolved by electrophoresis using 4-20% SDS-polyacrylamide gels (Bio-Rad) under denaturing and reducing conditions. Proteins were then electrotransferred to a PVDF membrane (Bio-Rad). […]\n(§2) Assays were performed in 3 biological replicates. […] Western blots were analyzed using ImageJ^1. […]"}, "[2]": {"target": "T1, SNAP25 (Homo sapiens, UniProt P60880)", "T1 construct": "we detected the palmitoylation levels of eight known palmitoylated proteins after treatment with 1; endogenous in cells; host or cells: HeLa", "T1 sequence (P60880 whole entry)": "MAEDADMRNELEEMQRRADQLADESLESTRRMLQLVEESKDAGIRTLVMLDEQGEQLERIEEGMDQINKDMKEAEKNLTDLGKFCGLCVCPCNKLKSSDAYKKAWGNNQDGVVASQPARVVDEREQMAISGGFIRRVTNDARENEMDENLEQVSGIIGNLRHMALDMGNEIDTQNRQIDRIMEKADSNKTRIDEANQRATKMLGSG", "assay": "Acyl resin-assisted capture detection of SNAP25 palmitoylation in HeLa cells", "assay_type": "cell-based", "settings": "1.25 μmol/10^7 cells, relative to vehicle", "procedure": "as §1, §2"}, "[3]": {"target": "T2, calnexin (Homo sapiens, UniProt P27824)", "T2 construct": "we detected the palmitoylation levels of eight known palmitoylated proteins after treatment with 1; endogenous in cells; host or cells: HeLa", "T2 sequence (P27824 21-592)": "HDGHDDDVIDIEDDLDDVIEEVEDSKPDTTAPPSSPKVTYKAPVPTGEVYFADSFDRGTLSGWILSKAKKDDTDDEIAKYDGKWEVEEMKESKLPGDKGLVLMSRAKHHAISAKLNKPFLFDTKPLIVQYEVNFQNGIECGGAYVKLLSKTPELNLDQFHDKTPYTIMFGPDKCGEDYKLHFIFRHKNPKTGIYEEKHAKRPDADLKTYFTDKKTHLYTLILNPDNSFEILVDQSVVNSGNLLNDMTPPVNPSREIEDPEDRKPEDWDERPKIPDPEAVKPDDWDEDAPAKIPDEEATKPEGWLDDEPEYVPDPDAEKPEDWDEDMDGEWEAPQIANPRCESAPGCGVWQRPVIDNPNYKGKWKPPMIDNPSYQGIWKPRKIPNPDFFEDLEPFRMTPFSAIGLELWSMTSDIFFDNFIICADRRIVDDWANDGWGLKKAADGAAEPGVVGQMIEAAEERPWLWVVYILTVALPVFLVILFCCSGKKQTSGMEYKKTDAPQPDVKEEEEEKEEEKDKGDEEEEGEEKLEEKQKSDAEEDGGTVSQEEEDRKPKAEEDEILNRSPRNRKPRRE", "assay": "Acyl resin-assisted capture detection of calnexin palmitoylation in HeLa cells", "assay_type": "cell-based", "settings": "1.25 μmol/10^7 cells, relative to vehicle", "procedure": "as §1, §2"}, "[4]": {"test_system": "AKT1 (pS473)", "assay": "Detection of AKT1 phosphorylation in T24 cells (western blot)", "assay_type": "cell-based, human", "settings": "T24 cells (oncogenic HRas mutation), 1.25 μmol/10^7 cells, 1 h", "procedure": "T24 cells were grown to confluency in 6 cm plates. Stock solutions of compounds were prepared in DMSO as before and diluted to the final indicated concentration in 2 mL of OptiMEM media before adding to cells. Cells were incubated at 37° C. for 1 h and then media removed and 1.5 mL of HBSS added to each plate. Cells were detached using a cell scraper, pelleted by centrifugation at 1,000 rcf for 5 min and the pellet processed using MPER™ Mammalian Protein Extraction Reagent (ThermoFisher) with the addition of Halt Protease Inhibitor Cocktail (ThermoFisher) and 1 mM sodium orthovanadate. Samples were resolved by electrophoresis using 4-20% SDS-polyacrylamide gels (Bio-Rad) under denaturing and reducing conditions. Proteins were then electrotransferred to a PVDF membrane (Bio-Rad). The membrane was blocked with 3% BSA and then subjected to immunoblot analysis using AKT/MAPK Signaling Pathway Antibody Cocktail (ab151279) (Abcam) and secondary goat anti-rabbit IgG-HRP (sc-2030) (Santa Cruz Biotechnology). Chemiluminescent detection was performed by using SuperSignal West Pico PLUS chemiluminescent substrate (ThermoFisher) according to the manufacturer's instructions.\nAssays were performed in 3 biological replicates. Western blots were analyzed using ImageJl. The intensity of the protein band in each condition was normalized to the intensity of the corresponding loading control (Rab11). […]"}, "[5]": {"test_system": "INCL lymphoblasts", "assay_type": "cell-based, human", "procedure": "INCL lymphoblasts were plated at 100,000 cells/well in 80 μL of OptiMEM in a 96 well plate. Stock organic solutions were prepared as before and then diluted to 5× stock solutions in OptiMEM. 20 μL of the OptiMEM stocks was then added to the appropriate wells to achieve the indicated final concentration of the compound in 100 μL of cell suspension. After a 24 h incubation, 10 μL of WST-1 reagent (Sigma-Aldrich) was added to each well and cells incubated for 1 h at 37° C., 5% CO2. Absorbance measurements were taken using a Satire II plate reader (Tecan) at 440 nm using 690 nm as a reference. The background absorbance of the WST-1 reagent in media was subtracted and cell viability was reported as a percentage of the viability of the non-treated control cells. All conditions were tested in 4 replicate wells and values reported as means±SD."}}}
{"smiles": "CCCCCCCCNC(=O)[C@@H](N)CS", "note": "[compound 1, H2N-L-Cys-Oct]", "values": [{"measurement": "reduction of palmitoylation level of Gα(i)", "setting": "[1]", "value": "> 80", "unit": "%"}, {"measurement": "reduction of palmitoylation level of SNAP25", "setting": "[2]", "value": "> 80", "unit": "%"}, {"measurement": "reduction of palmitoylation level of calnexin", "setting": "[3]", "value": "19-40%"}, {"measurement": "AKT1 phosphorylation", "setting": "[4]", "value": "near complete abrogation"}, {"measurement": "doses that did not decrease cell viability compared to the nontreated control", "setting": "[5]", "value": "up to 0.08 μmol/10^7 cells"}]}
